# Biological target: T1, BA/F3-FLT3-ITD + D835Y cells (Homo sapiens, UniProt P36888, D835Y, cells depend on it, form not given)
# T1 sequence (P36888 1-993 D835Y): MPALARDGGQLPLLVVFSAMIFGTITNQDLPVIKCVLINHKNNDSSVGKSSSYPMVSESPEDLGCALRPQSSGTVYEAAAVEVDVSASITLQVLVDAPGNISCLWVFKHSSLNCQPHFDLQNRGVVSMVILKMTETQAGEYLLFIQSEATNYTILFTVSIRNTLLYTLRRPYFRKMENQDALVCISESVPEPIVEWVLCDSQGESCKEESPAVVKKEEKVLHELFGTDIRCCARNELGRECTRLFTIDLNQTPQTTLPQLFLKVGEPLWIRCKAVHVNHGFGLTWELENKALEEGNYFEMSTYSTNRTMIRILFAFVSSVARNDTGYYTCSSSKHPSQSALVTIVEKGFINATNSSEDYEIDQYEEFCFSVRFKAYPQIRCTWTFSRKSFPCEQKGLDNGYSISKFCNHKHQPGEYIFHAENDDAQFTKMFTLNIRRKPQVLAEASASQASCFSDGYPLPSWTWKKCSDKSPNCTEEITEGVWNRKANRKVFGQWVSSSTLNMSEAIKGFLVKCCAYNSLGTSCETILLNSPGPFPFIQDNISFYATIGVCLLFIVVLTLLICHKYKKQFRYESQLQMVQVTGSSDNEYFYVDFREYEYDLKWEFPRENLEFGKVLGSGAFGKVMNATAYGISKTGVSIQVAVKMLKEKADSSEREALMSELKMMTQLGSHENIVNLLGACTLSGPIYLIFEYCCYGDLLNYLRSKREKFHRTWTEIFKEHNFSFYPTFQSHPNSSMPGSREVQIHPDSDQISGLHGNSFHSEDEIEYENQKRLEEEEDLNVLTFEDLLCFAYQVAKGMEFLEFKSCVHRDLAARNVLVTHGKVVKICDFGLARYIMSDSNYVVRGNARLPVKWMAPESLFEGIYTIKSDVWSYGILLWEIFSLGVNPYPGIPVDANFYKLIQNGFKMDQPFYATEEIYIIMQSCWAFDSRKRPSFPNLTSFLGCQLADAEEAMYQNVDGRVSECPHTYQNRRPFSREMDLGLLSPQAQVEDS
# Assay: Cell proliferation assay (CellTiter-Glo), engineered BA/F3 cells
# Assay type: cell-based, murine
# Conditions: BaF3 FLT3 ITD/D835Y cells, 3d-Growth; read-out: BaF3_FLT3 ITD/D835Y 3d-Growth: IC50
# Method in brief: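 Three-day growth at 37 °C, 5% CO2 under compound (1 μM top final, 1:3 dilutions, eight points, 0.2% DMSO), read as ATP luminescence by CellTiter-Glo for IC50. Cells: MOLM-14 with FLT3 ITD plus D835Y or F691L, and IL-3-deprived Ba/F3 transfected with FLT3 ITD/D835Y, 1×10^4 per well.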
row,SMILES,GI50
1,"CC(=O)NC1CCN(C(=O)c2cccc(-c3cnc4[nH]c(-c5ccc(F)cc5)cc4c3)c2)CC1 [Compound P-0001, N-[1-[3-[2-(4-fluorophenyl)-1H-pyrrolo[2,3-b]pyridin-5-yl]benzoyl]-4-piperidyl]acetamide]",0.0001 to 10 µM
2,"CON(C)C(=O)c1cccc(-c2cnc3[nH]c(-c4ccccc4)cc3c2)c1 [Compound P-0002, N-methoxy-N-methyl-3-(2-phenyl-1H-pyrrolo[2,3-b]pyridin-5-yl)benzamide]",0.0001 to 10 µM
3,"NC1CN(C(=O)c2n[nH]c3ccc(-c4cnc5[nH]c(-c6ccccc6)cc5c4)cc23)C1 [Compound P-0029, (3-aminoazetidin-1-yl)-[5-(2-phenyl-1H-pyrrolo[2,3-b]pyridin-5-yl)-1H-indazol-3-yl]methanone]",0.0001 to 10 µM
4,"CNC(=O)C1CCN(C(=O)c2cccc(-c3cnc4[nH]c(-c5ccccc5)cc4c3)n2)CC1 [Compound P-0030, N-methyl-1-[6-(2-phenyl-1H-pyrrolo[2,3-b]pyridin-5-yl)pyridine-2-carbonyl]piperidine-4-carboxamide]",0.0001 to 10 µM
5,"CCNC(=O)NC1CCN(C(=O)c2cccc(-c3cnc4[nH]c(-c5ccccc5)cc4c3)n2)CC1 [Compound P-0031, 1-ethyl-3-[1-[6-(2-phenyl-1H-pyrrolo[2,3-b]pyridin-5-yl)pyridine-2-carbonyl]-4-piperidyl]urea]",0.0001 to 10 µM
6,"CS(=O)(=O)NC1CCN(C(=O)c2cccc(-c3cnc4[nH]c(-c5ccccc5)cc4c3)n2)CC1 [Compound P-0032, N-[1-[6-(2-phenyl-1H-pyrrolo[2,3-b]pyridin-5-yl)pyridine-2-carbonyl]-4-piperidyl]methanesulfonamide]",0.0001 to 10 µM
7,"Cc1ccc(-c2cnc3[nH]c(-c4ccccc4)cc3c2)nc1C(=O)N1CCC(N)CC1 [Compound P-0033, (4-amino-1-piperidyl)-[3-methyl-6-(2-phenyl-1H-pyrrolo[2,3-b]pyridin-5-yl)-2-pyridyl]methanone]",0.0001 to 10 µM
8,"NC1CCN(c2cccc3ccc(-c4cnc5[nH]c(-c6ccccc6)cc5c4)nc23)CC1 [Compound P-0034, 1-[2-(2-phenyl-1H-pyrrolo[2,3-b]pyridin-5-yl)-8-quinolyl]piperidin-4-amine]",0.0001 to 10 µM
9,"Cc1ccc(-c2cnc3[nH]c(-c4ccccc4)cc3c2)cc1C(=O)N1CCC(N)CC1 [Compound P-0035, (4-amino-1-piperidyl)-[2-methyl-5-(2-phenyl-1H-pyrrolo[2,3-b]pyridin-5-yl)phenyl]methanone]",0.0001 to 10 µM
10,"N[C@H]1CCN(C(=O)c2cccc(-c3cnc4[nH]c(-c5ccccc5)cc4c3)c2)C1 [Compound P-0036, [(3S)-3-aminopyrrolidin-1-yl]-[3-(2-phenyl-1H-pyrrolo[2,3-b]pyridin-5-yl)phenyl]methanone]",0.0001 to 10 µM
11,"NC1CCN(C(=O)c2cc(-c3cnc4[nH]c(-c5ccccc5)cc4c3)ccn2)CC1 [Compound P-0038, (4-amino-1-piperidyl)-[4-(2-phenyl-1H-pyrrolo[2,3-b]pyridin-5-yl)-2-pyridyl]methanone]",0.0001 to 10 µM
12,"O=C(NC1CCNCC1)c1n[nH]c2ccc(-c3cnc4[nH]c(-c5ccccc5)cc4c3)cc12 [Compound P-0039, 5-(2-phenyl-1H-pyrrolo[2,3-b]pyridin-5-yl)-N-(4-piperidyl)-1H-indazole-3-carboxamide]",0.0001 to 10 µM
13,"CNC1CCN(C(=O)c2cccc(-c3cnc4[nH]c(-c5ccccc5)cc4c3)n2)CC1 [Compound P-0041, [4-(methylamino)-1-piperidyl]-[6-(2-phenyl-1H-pyrrolo[2,3-b]pyridin-5-yl)-2-pyridyl]methanone]",0.0001 to 10 µM
14,"NC1CCN(C(=O)c2c[nH]c3ccc(-c4cnc5[nH]c(-c6ccccc6)cc5c4)cc23)CC1 [Compound P-0042, (4-amino-1-piperidyl)-[5-(2-phenyl-1H-pyrrolo[2,3-b]pyridin-5-yl)-1H-indol-3-yl]methanone]",0.0001 to 10 µM
15,"O=C(c1cccc(-c2cnc3[nH]c(-c4ccccc4)cc3c2)n1)C1CCNCC1 [Compound P-0043, [6-(2-phenyl-1H-pyrrolo[2,3-b]pyridin-5-yl)-2-pyridyl]-(4-piperidyl)methanone]",0.0001 to 10 µM

# The next lines start with the values.
row,GI50,SMILES
1,0.0001 to 10 µM,"CNC1CCN(C(=O)c2n[nH]c3ccc(-c4cnc5[nH]c(-c6ccccc6)cc5c4)cc23)CC1 [Compound P-0044, [4-(methylamino)-1-piperidyl]-[5-(2-phenyl-1H-pyrrolo[2,3-b]pyridin-5-yl)-1H-indazol-3-yl]methanone]"
2,0.0001 to 10 µM,"O=C(NC1CCNC1)c1cccc(-c2cnc3[nH]c(-c4ccccc4)cc3c2)n1 (stereo not drawn) [Compound P-0045, 6-(2-phenyl-1H-pyrrolo[2,3-b]pyridin-5-yl)-N-pyrrolidin-3-yl-pyridine-2-carboxamide]"
3,0.0001 to 10 µM,"N[C@H]1CCN(C(=O)c2cc(-c3cnc4[nH]c(-c5ccccc5)cc4c3)ccn2)C1 [Compound P-0046, [(3S)-3-aminopyrrolidin-1-yl]-[4-(2-phenyl-1H-pyrrolo[2,3-b]pyridin-5-yl)-2-pyridyl]methanone]"
4,0.0001 to 10 µM,"NC1CCC(C(=O)N2Cc3c(cccc3-c3cnc4[nH]c(-c5ccccc5)cc4c3)C2=O)C1 (stereo not drawn) [Compound P-0047, 2-(3-aminocyclopentanecarbonyl)-4-(2-phenyl-1H-pyrrolo[2,3-b]pyridin-5-yl)isoindolin-1-one]"
5,50 to 100 µM,"N[C@H]1CCN(C(=O)c2csc(-c3cnc4[nH]c(-c5ccccc5)cc4c3)n2)C1 [Compound P-0048, [(3S)-3-aminopyrrolidin-1-yl]-[2-(2-phenyl-1H-pyrrolo[2,3-b]pyridin-5-yl)thiazol-4-yl]methanone]"
6,0.0001 to 10 µM,"c1ccc(-c2cc3cc(-c4ccc5[nH]nc(NC6CNC6)c5c4)cnc3[nH]2)cc1 [Compound P-0053, N-(azetidin-3-yl)-5-(2-phenyl-1H-pyrrolo[2,3-b]pyridin-5-yl)-1H-indazol-3-amine]"
7,0.0001 to 10 µM,"c1ccc(-c2cc3cc(-c4ccc5[nH]nc(NC6CCNCC6)c5c4)cnc3[nH]2)cc1 [Compound P-0056, 5-(2-phenyl-1H-pyrrolo[2,3-b]pyridin-5-yl)-N-(4-piperidyl)-1H-indazol-3-amine]"
8,0.0001 to 10 µM,"N=C(N)N1CCN(C(=O)c2cccc(-c3cnc4[nH]c(-c5ccccc5)cc4c3)n2)CC1 [Compound P-0057, 4-[6-(2-phenyl-1H-pyrrolo[2,3-b]pyridin-5-yl)pyridine-2-carbonyl]piperazine-1-carboxamidine]"
9,0.0001 to 10 µM,"c1ccc(-c2cc3cc(-c4ccc5[nH]nc(NC6CCNC6)c5c4)cnc3[nH]2)cc1 (stereo not drawn) [Compound P-0059, 5-(2-phenyl-1H-pyrrolo[2,3-b]pyridin-5-yl)-N-pyrrolidin-3-yl-1H-indazol-3-amine]"
10,0.0001 to 10 µM,"NC1CCCN(C(=O)c2cccc(-c3cnc4[nH]c(-c5ccccc5)cc4c3)n2)C1 (stereo not drawn) [Compound P-0067, (3-amino-1-piperidyl)-[6-(2-phenyl-1H-pyrrolo[2,3-b]pyridin-5-yl)-2-pyridyl]methanone]"
11,0.0001 to 10 µM,"O=C(c1cccc(-c2cnc3[nH]c(-c4ccccc4)cc3c2)n1)N1CCC(O)C1 (stereo not drawn) [Compound P-0068, (3-hydroxypyrrolidin-1-yl)-[6-(2-phenyl-1H-pyrrolo[2,3-b]pyridin-5-yl)-2-pyridyl]methanone]"
12,0.0001 to 10 µM,"O=C(c1cccc(-c2cnc3[nH]c(-c4ccccc4)cc3c2)n1)N1CCCC(O)C1 (stereo not drawn) [Compound P-0069, (3-hydroxy-1-piperidyl)-[6-(2-phenyl-1H-pyrrolo[2,3-b]pyridin-5-yl)-2-pyridyl]methanone]"

# Reference: US9938273B2 (Plexxikon Inc., priority 2015, dated 2018)
